Experimental data taken from the NIST ThermoML archive (doi:10.1021/acs.jced.6b00181).

Assay: xn = mol fraction of the nth substance listed
Conditions: Liquid, Other PVT measurement

C=CC [propene] + CCCCCC
Conditions	mass density [kg/m3]
325.5 K, 6800 kPa, x1 = 0.8985	488.5
325.5 K, 10700 kPa, x1 = 0.8985	500.7
325.5 K, 13800 kPa, x1 = 0.8985	508.3
325.5 K, 16100 kPa, x1 = 0.8985	513.5
325.5 K, 20900 kPa, x1 = 0.8985	523.6
325.5 K, 27600 kPa, x1 = 0.8985	535.1
325.5 K, 34300 kPa, x1 = 0.8985	544.8
325.5 K, 41300 kPa, x1 = 0.8985	554.1
325.5 K, 48200 kPa, x1 = 0.8985	561.7
325.5 K, 51600 kPa, x1 = 0.8985	566.7
325.5 K, 55000 kPa, x1 = 0.8985	569.5
325.5 K, 58400 kPa, x1 = 0.8985	574.2
325.5 K, 61800 kPa, x1 = 0.8985	576.8
325.5 K, 64200 kPa, x1 = 0.8985	580.1
325.5 K, 67100 kPa, x1 = 0.8985	582.4
370.2 K, 5200 kPa, x1 = 0.9003	385.2
370.2 K, 5900 kPa, x1 = 0.9003	392.1
370.2 K, 7300 kPa, x1 = 0.9003	406
370.2 K, 10700 kPa, x1 = 0.9003	429.7
370.2 K, 14200 kPa, x1 = 0.9003	447.3
370.2 K, 17300 kPa, x1 = 0.9003	459.2
370.2 K, 20800 kPa, x1 = 0.9003	469.1
370.2 K, 24100 kPa, x1 = 0.9003	478.3
370.2 K, 31300 kPa, x1 = 0.9003	495.2
370.2 K, 38000 kPa, x1 = 0.9003	508.5
370.2 K, 44600 kPa, x1 = 0.9003	519.7
370.2 K, 46900 kPa, x1 = 0.9003	523.6
370.2 K, 48000 kPa, x1 = 0.9003	523.6
370.2 K, 50600 kPa, x1 = 0.9003	529.1
370.2 K, 51400 kPa, x1 = 0.9003	529.1
370.2 K, 57800 kPa, x1 = 0.9003	538.5
370.2 K, 61800 kPa, x1 = 0.9003	544.3
370.2 K, 67100 kPa, x1 = 0.9003	550.3
374.1 K, 2800 kPa, x1 = 0.606	465.7
374.1 K, 2900 kPa, x1 = 0.606	467
374.1 K, 3800 kPa, x1 = 0.606	471.2
374.1 K, 5500 kPa, x1 = 0.606	479
374.1 K, 7300 kPa, x1 = 0.606	486.2
374.1 K, 10600 kPa, x1 = 0.606	497.9
374.1 K, 17400 kPa, x1 = 0.606	515.3
374.1 K, 24000 kPa, x1 = 0.606	528.5
374.1 K, 31000 kPa, x1 = 0.606	540.7
374.1 K, 37900 kPa, x1 = 0.606	551.3
374.1 K, 38000 kPa, x1 = 0.606	551.7
374.1 K, 44700 kPa, x1 = 0.606	560.9
374.1 K, 51300 kPa, x1 = 0.606	569.2
374.1 K, 58100 kPa, x1 = 0.606	577.4
374.1 K, 63300 kPa, x1 = 0.606	583.4
374.1 K, 66900 kPa, x1 = 0.606	587.4
423.6 K, 16600 kPa, x1 = 0.9003	385.2
423.6 K, 17400 kPa, x1 = 0.9003	389.1
423.6 K, 20800 kPa, x1 = 0.9003	408.2
423.6 K, 24300 kPa, x1 = 0.9003	424
423.6 K, 31200 kPa, x1 = 0.9003	449.1
423.6 K, 37900 kPa, x1 = 0.9003	462.3
423.6 K, 44800 kPa, x1 = 0.9003	479.8
423.6 K, 51600 kPa, x1 = 0.9003	493
423.6 K, 58300 kPa, x1 = 0.9003	504.1
423.6 K, 59400 kPa, x1 = 0.9003	504.8
423.6 K, 63700 kPa, x1 = 0.9003	512.3
423.6 K, 67100 kPa, x1 = 0.9003	516.8
424 K, 10100 kPa, x1 = 0.606	427.5
424 K, 17500 kPa, x1 = 0.606	462.7
424 K, 24300 kPa, x1 = 0.606	484.2
424 K, 30800 kPa, x1 = 0.606	500.6
424 K, 37900 kPa, x1 = 0.606	514.3
424 K, 44700 kPa, x1 = 0.606	523.9
424 K, 51400 kPa, x1 = 0.606	534.9
424 K, 58300 kPa, x1 = 0.606	546
424 K, 63000 kPa, x1 = 0.606	551
424 K, 66900 kPa, x1 = 0.606	556
424.7 K, 4800 kPa, x1 = 0.4466	433.6
424.7 K, 7200 kPa, x1 = 0.4466	448.4
424.7 K, 10700 kPa, x1 = 0.4466	467.6
424.7 K, 17400 kPa, x1 = 0.4466	492.5
424.7 K, 21000 kPa, x1 = 0.4466	502.4
424.7 K, 24300 kPa, x1 = 0.4466	511.5
424.7 K, 31000 kPa, x1 = 0.4466	525
424.7 K, 37800 kPa, x1 = 0.4466	537.6
424.7 K, 44700 kPa, x1 = 0.4466	548.4
424.7 K, 51500 kPa, x1 = 0.4466	558.4
424.7 K, 58300 kPa, x1 = 0.4466	567.4
424.7 K, 63900 kPa, x1 = 0.4466	573.9
424.7 K, 67500 kPa, x1 = 0.4466	578.1
425 K, 1800 kPa, x1 = 0.1414	494.2
425 K, 3700 kPa, x1 = 0.1414	504.2
425 K, 5100 kPa, x1 = 0.1414	510.4
425 K, 7000 kPa, x1 = 0.1414	517.7
425 K, 10400 kPa, x1 = 0.1414	528.7
425 K, 17300 kPa, x1 = 0.1414	546.6
425 K, 17500 kPa, x1 = 0.1414	547.3
425 K, 20600 kPa, x1 = 0.1414	553.9
425 K, 24100 kPa, x1 = 0.1414	561.4
425 K, 27600 kPa, x1 = 0.1414	567.6
425 K, 30900 kPa, x1 = 0.1414	573.2
425 K, 34300 kPa, x1 = 0.1414	578.9
425 K, 37800 kPa, x1 = 0.1414	584.7
425 K, 41100 kPa, x1 = 0.1414	589.1
425 K, 44600 kPa, x1 = 0.1414	594.3
425 K, 51900 kPa, x1 = 0.1414	603.8
425 K, 54400 kPa, x1 = 0.1414	607.1
425 K, 58600 kPa, x1 = 0.1414	612.3
425 K, 61800 kPa, x1 = 0.1414	615.7
425 K, 63600 kPa, x1 = 0.1414	617.9
425 K, 66700 kPa, x1 = 0.1414	621
500.9 K, 12400 kPa, x1 = 0.1414	449.6
500.9 K, 13900 kPa, x1 = 0.1414	457.6
500.9 K, 20800 kPa, x1 = 0.1414	486.8
500.9 K, 24600 kPa, x1 = 0.1414	500.5
500.9 K, 27500 kPa, x1 = 0.1414	508.9
500.9 K, 31000 kPa, x1 = 0.1414	517.7
500.9 K, 37300 kPa, x1 = 0.1414	531.3
500.9 K, 37900 kPa, x1 = 0.1414	531.3
500.9 K, 41400 kPa, x1 = 0.1414	537.5
500.9 K, 44700 kPa, x1 = 0.1414	543.2
500.9 K, 44800 kPa, x1 = 0.1414	543.5
500.9 K, 47100 kPa, x1 = 0.1414	549
500.9 K, 48100 kPa, x1 = 0.1414	549
500.9 K, 51500 kPa, x1 = 0.1414	554.6
500.9 K, 54900 kPa, x1 = 0.1414	559.9
500.9 K, 58400 kPa, x1 = 0.1414	565.4
500.9 K, 61800 kPa, x1 = 0.1414	569.8
500.9 K, 64600 kPa, x1 = 0.1414	574
500.9 K, 67400 kPa, x1 = 0.1414	577.4
501 K, 7900 kPa, x1 = 0.4466	293.3
501 K, 9200 kPa, x1 = 0.606	230.6
501 K, 9700 kPa, x1 = 0.4466	331
501 K, 10100 kPa, x1 = 0.4466	330.6
501 K, 10700 kPa, x1 = 0.606	272.7
501 K, 12400 kPa, x1 = 0.606	306.1
501 K, 12600 kPa, x1 = 0.4466	363.8
501 K, 17200 kPa, x1 = 0.4466	401.7
501 K, 17300 kPa, x1 = 0.606	362
501 K, 20700 kPa, x1 = 0.606	386.4
501 K, 21900 kPa, x1 = 0.4466	428.7
501 K, 22000 kPa, x1 = 0.4466	433.3
501 K, 24000 kPa, x1 = 0.4466	436.5
501 K, 24400 kPa, x1 = 0.4466	440.8
501 K, 25200 kPa, x1 = 0.606	411.3
501 K, 29000 kPa, x1 = 0.606	429
501 K, 31000 kPa, x1 = 0.606	435.7
501 K, 31200 kPa, x1 = 0.4466	463.6
501 K, 34600 kPa, x1 = 0.4466	473.3
501 K, 37900 kPa, x1 = 0.4466	482.2
501 K, 37900 kPa, x1 = 0.606	455.7
501 K, 44800 kPa, x1 = 0.606	473.6
501 K, 45000 kPa, x1 = 0.4466	497.7
501 K, 51400 kPa, x1 = 0.606	485.9
501 K, 51600 kPa, x1 = 0.4466	509.9
501 K, 57900 kPa, x1 = 0.4466	519.9
501 K, 58400 kPa, x1 = 0.606	500
501 K, 63000 kPa, x1 = 0.606	506.6
501 K, 63200 kPa, x1 = 0.4466	527.6
501 K, 67000 kPa, x1 = 0.606	512.8
501 K, 67200 kPa, x1 = 0.4466	533.2
584.6 K, 29000 kPa, x1 = 0.1414	449.8
584.6 K, 31100 kPa, x1 = 0.1414	456.9
584.6 K, 34700 kPa, x1 = 0.1414	468.2
584.6 K, 37900 kPa, x1 = 0.1414	478
584.6 K, 41400 kPa, x1 = 0.1414	487.3
584.6 K, 44800 kPa, x1 = 0.1414	495.6
584.6 K, 45100 kPa, x1 = 0.1414	496.5
584.6 K, 48100 kPa, x1 = 0.1414	503.4
584.6 K, 51700 kPa, x1 = 0.1414	510.7
584.6 K, 55100 kPa, x1 = 0.1414	517.4
584.6 K, 58400 kPa, x1 = 0.1414	523.9
584.6 K, 61800 kPa, x1 = 0.1414	529
584.6 K, 64200 kPa, x1 = 0.1414	532.9
584.6 K, 67400 kPa, x1 = 0.1414	537.5
